Active and inactive are the calls of the source.
Assays:
cells [1] = assay type: functional, cell-based
Insulin-degrading enzyme [2] = biological target: T1, Insulin-degrading enzyme (Homo sapiens, UniProt P14735); assay: activators of endogenous IDE in HEK cells, dose response, cell-based, fluorescence polarization (AID 588439); assay type: functional
HEK293 [3] = assay: HEK cell cytotoxicity by LDH release, dose response, cytotoxicity control for IDE activator project, fluorescence, HEK cells (AID 588440); assay type: functional, cell-based; details: Homo sapiens;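 also: cytotoxicity by LDH release measuring loss of membrane integrity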
cells [4] = assay type: functional, cell-based; remark: listed apart in the source
HEK293 [5] = assay: optical interference in Abeta FP readout, dose response, artefact control for IDE activator project, biochemical, fluorescence polarization (AID 588442); assay type: functional, cell-based; details: Homo sapiens
Insulin-degrading enzyme [6] = biological target: T1, Insulin-degrading enzyme; assay: activators of recombinant IDE enzyme, dose response, counter-screen for IDE activator project, biochemical, fluorescence polarization (AID 588681)
NIH3T3 = assay: mammalian cell toxicity in NIH-3T3 fibroblasts, dose response, cytotoxicity control for antifungal resistance reversal project, Alamar Blue, dry powder, set 2 (AID 488911); assay type: functional, cell-based; details: Mus musculus
[7] = biological target: T2, Sentrin-specific protease 8 (Homo sapiens, UniProt Q96LD8); assay: SENP8 protease inhibitors, SAR follow-up, biochemical, luminescence (AID 504501); assay type: functional
T2 sequence (Q96LD8 whole entry): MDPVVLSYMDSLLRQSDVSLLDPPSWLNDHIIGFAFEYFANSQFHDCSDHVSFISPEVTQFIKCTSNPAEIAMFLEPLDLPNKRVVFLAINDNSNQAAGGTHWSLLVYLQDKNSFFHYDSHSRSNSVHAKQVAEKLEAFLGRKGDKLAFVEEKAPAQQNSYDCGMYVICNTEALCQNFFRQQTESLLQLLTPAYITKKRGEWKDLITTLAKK

[8] = biological target: T3, Sentrin-specific protease 6 (Homo sapiens, UniProt Q9GZR1); assay: SAR Analysis of small molecule inhibitors of Sentrin-specific protease 6 (SENP6) using a Luminescent assay. [Related pubchem assays (depositor defined):AID2582, AID2599]; assay type: functional
T3 sequence (Q9GZR1 whole entry): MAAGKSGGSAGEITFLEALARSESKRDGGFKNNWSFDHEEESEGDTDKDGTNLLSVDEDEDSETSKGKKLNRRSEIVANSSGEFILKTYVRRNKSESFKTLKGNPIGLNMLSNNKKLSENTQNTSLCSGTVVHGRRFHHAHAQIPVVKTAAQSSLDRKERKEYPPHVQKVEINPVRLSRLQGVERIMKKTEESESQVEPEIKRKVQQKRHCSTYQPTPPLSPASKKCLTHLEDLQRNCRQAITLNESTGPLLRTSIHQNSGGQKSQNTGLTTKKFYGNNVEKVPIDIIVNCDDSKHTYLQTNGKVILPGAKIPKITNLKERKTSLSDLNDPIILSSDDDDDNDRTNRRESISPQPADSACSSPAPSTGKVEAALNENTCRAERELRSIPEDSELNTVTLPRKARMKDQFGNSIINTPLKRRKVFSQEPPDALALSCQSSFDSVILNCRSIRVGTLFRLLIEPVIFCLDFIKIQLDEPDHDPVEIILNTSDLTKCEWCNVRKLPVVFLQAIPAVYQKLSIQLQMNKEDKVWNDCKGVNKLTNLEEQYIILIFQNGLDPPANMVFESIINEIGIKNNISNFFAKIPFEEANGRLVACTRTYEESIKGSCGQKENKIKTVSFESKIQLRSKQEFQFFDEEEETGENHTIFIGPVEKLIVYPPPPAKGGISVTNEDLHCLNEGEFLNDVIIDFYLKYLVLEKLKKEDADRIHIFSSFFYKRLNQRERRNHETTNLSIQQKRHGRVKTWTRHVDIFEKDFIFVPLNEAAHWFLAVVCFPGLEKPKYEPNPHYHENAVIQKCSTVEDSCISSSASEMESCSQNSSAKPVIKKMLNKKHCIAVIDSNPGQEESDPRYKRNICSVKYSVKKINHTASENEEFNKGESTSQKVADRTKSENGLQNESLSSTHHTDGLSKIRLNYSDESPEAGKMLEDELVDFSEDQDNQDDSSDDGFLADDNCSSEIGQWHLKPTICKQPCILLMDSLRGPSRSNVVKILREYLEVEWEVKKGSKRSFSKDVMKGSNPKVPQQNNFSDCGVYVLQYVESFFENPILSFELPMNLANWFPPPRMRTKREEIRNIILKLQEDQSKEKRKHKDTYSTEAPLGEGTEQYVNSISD

Caspase-3 = biological target: T4, Caspase-3 (Homo sapiens, UniProt P42574); assay: SAR Analysis of small molecule inhibitors of Sentrin-specific proteases (SENPs) using a Caspase-3 Selectivity assay. [Related pubchem assays (depositor defined):AID2540, AID2599, AID434973, AID489001]; assay type: functional
T4 sequence (P42574 whole entry): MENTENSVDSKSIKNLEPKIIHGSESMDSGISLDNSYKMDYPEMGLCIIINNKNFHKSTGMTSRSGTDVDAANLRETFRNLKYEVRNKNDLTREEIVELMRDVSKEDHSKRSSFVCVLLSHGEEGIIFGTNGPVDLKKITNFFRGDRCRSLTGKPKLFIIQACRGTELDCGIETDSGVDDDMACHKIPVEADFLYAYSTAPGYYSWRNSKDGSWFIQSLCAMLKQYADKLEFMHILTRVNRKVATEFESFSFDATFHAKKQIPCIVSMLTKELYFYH

[9] = biological target: T5, Sentrin-specific protease 7 (Homo sapiens, UniProt Q9BQF6); assay: SENP7 protease inhibitors, SAR follow-up, biochemical, luminescence (AID 504497); assay type: functional
T5 sequence (Q9BQF6 whole entry): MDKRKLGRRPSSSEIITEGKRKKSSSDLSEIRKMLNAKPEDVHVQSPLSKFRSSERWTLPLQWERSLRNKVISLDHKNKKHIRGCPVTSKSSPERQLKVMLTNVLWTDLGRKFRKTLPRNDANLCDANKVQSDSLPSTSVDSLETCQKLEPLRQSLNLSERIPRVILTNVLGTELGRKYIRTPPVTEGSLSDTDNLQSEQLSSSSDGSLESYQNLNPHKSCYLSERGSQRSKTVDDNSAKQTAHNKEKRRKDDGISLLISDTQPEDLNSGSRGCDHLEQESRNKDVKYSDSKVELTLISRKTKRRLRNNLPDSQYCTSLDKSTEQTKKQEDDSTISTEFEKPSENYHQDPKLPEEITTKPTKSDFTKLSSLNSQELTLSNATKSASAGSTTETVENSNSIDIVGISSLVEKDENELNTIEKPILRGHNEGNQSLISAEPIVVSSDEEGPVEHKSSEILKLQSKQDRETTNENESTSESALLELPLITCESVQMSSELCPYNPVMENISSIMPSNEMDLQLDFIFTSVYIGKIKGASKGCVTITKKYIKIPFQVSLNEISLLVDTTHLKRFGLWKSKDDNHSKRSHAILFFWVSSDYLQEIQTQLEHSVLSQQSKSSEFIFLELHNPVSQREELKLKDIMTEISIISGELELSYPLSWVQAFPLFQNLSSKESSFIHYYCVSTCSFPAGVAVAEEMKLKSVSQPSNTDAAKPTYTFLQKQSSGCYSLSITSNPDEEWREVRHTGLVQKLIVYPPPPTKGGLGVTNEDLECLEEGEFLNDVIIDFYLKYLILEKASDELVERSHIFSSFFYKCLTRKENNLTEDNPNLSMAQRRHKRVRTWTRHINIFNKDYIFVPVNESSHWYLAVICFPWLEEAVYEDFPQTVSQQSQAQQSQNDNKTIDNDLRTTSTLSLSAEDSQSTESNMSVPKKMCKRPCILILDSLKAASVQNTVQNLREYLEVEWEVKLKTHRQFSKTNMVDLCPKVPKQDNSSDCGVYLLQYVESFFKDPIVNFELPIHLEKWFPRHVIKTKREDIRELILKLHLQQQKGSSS

Melanocortin receptor 4 = Melanocortin receptor 4 (Homo sapiens, UniProt P32245); assay: MC4R antagonist potency on cAMP, dose response, cell-based, TR-FRET, biased antagonists (AID 602298); assay type: functional;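 also: antagonist potency against agonist-stimulated cAMP production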
Sequence of Melanocortin receptor 4 (P32245 whole entry): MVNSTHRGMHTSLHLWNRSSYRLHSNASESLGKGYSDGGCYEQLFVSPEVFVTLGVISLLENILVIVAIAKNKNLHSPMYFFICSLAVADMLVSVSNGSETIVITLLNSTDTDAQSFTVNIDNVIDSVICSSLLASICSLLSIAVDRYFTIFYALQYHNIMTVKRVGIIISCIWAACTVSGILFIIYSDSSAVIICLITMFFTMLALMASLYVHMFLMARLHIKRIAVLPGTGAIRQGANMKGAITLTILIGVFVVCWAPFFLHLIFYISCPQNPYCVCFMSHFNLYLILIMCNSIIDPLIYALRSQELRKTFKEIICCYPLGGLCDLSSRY

[10] = inhibitors of intracellular T. cruzi replication, confirmation, NIH3T3 host cells, beta-gal luminescence (AID 2044); assay type: functional, cell-based;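 also: intracellular parasites grown in NIH/3T3 mouse fibroblasts as host cells; luminescent beta-galactosidase reporter signal from transgenic T. cruzi replicating inside host cells; inhibitors lower the luminescence signal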
[11] = nonselective inhibitors of cellular cAMP signaling, dose response, counter-screen for MC4R biased antagonist project, cell-based, TR-FRET cAMP detection (AID 602305); assay type: functional;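 also: U2OS cells stimulated with forskolin near its EC80 as the cAMP inducer; potency is for inhibition of forskolin-stimulated cAMP signaling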
[12] = cytotoxicity toward NIH3T3 fibroblasts, dose response, counter-screen, cell-based, ATP luminescence, mouse fibroblasts (AID 2010); assay type: functional;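 also: cells exposed to compound for about 90 hours before reading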
[13] = biological target: Multidrug resistance protein CDR1 (Candida albicans, UniProt P43071); assay: CaCDR1 efflux pump inhibitors in yeast, dose response, S. cerevisiae AD1-8u, singleplex, Cherry Pick1 hits (AID 588606); assay type: functional
[14] = biological target: Vascular endothelial growth factor receptor 1 (Homo sapiens, UniProt P17948); assay type: functional;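 also: measured within a kinome-wide profiling panel, FLT1 as the panel member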
[15] = biological target: Cyclin-dependent kinase 19 (Homo sapiens, UniProt Q9BWU1); assay: Navigating the Kinome. Panel member name: CDC2L6; assay type: functional
[16] = biological target: Tyrosine-protein kinase receptor TYRO3 (Homo sapiens, UniProt Q06418); assay type: functional;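 also: TYRO3 value obtained as one member of a kinome-wide profiling panel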
Sequence of Tyrosine-protein kinase receptor TYRO3 (Q06418 whole entry): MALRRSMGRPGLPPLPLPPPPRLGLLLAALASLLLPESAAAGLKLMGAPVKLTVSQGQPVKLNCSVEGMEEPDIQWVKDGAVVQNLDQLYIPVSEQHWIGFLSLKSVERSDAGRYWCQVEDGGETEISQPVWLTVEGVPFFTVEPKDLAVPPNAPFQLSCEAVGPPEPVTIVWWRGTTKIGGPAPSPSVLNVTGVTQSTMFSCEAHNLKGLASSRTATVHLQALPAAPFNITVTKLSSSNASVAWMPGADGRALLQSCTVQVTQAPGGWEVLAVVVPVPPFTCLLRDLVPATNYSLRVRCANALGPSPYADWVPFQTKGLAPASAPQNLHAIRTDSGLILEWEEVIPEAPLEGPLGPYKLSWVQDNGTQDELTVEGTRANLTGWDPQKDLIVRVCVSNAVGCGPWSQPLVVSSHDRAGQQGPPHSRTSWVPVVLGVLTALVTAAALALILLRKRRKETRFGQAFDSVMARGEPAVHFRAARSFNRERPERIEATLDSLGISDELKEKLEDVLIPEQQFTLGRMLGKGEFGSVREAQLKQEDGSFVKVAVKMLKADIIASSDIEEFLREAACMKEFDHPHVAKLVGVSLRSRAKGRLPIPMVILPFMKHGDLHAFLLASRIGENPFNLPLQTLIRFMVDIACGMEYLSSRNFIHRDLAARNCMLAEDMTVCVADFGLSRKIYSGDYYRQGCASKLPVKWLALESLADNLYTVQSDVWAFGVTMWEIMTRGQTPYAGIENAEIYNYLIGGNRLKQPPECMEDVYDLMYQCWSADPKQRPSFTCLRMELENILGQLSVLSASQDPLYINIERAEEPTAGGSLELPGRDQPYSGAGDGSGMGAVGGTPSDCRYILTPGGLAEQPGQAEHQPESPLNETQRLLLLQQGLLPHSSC

[17] = biological target: Dual specificity tyrosine-phosphorylation-regulated kinase 1B (Homo sapiens, UniProt Q9Y463); assay: Navigating the Kinome. Panel member name: DYRK1B; assay type: functional
[18] = THP-1 cell cytotoxicity, cytotoxicity control, set 4 (AID 504911); assay type: functional; details: Mycobacterium tuberculosis
[19] = THP-1 cell cytotoxicity, dose response, cytotoxicity control, set 3 (AID 504852); assay type: functional; details: Mycobacterium tuberculosis
[20] = Vero cell cytotoxicity, dose response, cytotoxicity control for M. tuberculosis growth inhibitor project, Vero cells, purified and synthesized compounds, set 5 (AID 504909); assay type: functional; details: Mycobacterium tuberculosis
[21] = A Cell Based Secondary Assay to Explore Cytotoxicity in THP-1 Cells of Compounds that Modulate Mycobacterium tuberculosis in Media Containing Glycerol versus Media without Glycerol (2).; assay type: functional
[22] = Vero cell cytotoxicity, dose response, cytotoxicity control for M. tuberculosis growth inhibitor project, Vero cells, purified and synthesized compounds, set 4 (AID 504854); assay type: functional; details: Mycobacterium tuberculosis
[23] = Vero cell cytotoxicity, cytotoxicity control for M. tuberculosis inhibitor project, purified and synthesized samples, set 3 (AID 504684); assay type: functional
[24] = A Cell Based Secondary Assay to Explore Cytotoxicity in HepG2 Cells of Compounds that Modulate Mycobacterium tuberculosis in Media Containing Glycerol versus Media without Glycerol (2).; assay type: functional
[25] = biological target: Protein disulfide-isomerase (Homo sapiens, UniProt P07237); assay: PDI inhibitors, insulin aggregation turbidity, dose response, biochemical, absorbance, cherry-picked samples (AID 602350); assay type: functional
Sequence of Protein disulfide-isomerase (P07237 whole entry): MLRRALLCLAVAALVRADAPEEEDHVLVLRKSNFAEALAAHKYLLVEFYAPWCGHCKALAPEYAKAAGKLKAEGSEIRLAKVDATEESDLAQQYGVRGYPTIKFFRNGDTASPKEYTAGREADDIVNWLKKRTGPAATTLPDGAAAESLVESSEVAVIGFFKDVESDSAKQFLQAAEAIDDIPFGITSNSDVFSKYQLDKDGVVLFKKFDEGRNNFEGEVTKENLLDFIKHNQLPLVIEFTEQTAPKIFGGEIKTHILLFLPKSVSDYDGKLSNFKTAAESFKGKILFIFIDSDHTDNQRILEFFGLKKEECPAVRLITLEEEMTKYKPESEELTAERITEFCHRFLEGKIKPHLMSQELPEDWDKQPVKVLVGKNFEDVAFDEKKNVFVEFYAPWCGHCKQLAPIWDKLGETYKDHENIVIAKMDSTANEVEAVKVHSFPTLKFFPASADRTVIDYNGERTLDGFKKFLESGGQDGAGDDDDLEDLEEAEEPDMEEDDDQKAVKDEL

[26] = biological target: Neuropeptides B/W receptor type 1 (Homo sapiens, UniProt P48145); assay: GPR7 antagonist potency, late-stage follow-up, cell-based, fluorescence, dose response, set 5 (AID 588566); assay type: functional
[27] = biological target: Melanin-concentrating hormone receptor 1 (Homo sapiens, UniProt Q99705); assay: Late-stage fluorescence-based counterscreen for antagonists of the G-protein coupled receptor 7 (GPR7): cell-based dose response assay to identify antagonists of the melanin-concentrating hormone receptor 1 (MCHR1) Set 5.; assay type: functional
[28] = biological target: Dual specificity protein kinase CLK4 (Homo sapiens, UniProt Q9HAZ1); assay type: functional
[29] = biological target: Cyclin-dependent kinase 8 (Homo sapiens, UniProt P49336); assay: Navigating the Kinome. Panel member name: CDK8; assay type: functional
Sequence of Cyclin-dependent kinase 8 (P49336 whole entry): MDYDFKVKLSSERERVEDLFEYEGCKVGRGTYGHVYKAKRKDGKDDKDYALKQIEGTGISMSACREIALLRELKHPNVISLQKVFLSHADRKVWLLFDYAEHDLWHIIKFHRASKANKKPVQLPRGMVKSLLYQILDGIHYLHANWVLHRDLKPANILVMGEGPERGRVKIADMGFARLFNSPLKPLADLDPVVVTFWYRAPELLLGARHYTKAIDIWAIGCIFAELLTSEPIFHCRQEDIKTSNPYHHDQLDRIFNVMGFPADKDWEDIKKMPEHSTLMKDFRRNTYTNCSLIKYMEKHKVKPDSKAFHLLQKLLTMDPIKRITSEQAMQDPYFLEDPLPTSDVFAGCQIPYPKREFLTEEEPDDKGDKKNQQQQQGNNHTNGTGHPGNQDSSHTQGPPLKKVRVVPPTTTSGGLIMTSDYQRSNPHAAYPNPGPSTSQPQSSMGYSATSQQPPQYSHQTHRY

[30] = biological target: Vascular endothelial growth factor receptor 2 (Homo sapiens, UniProt P35968); assay type: functional
Sequence of Vascular endothelial growth factor receptor 2 (P35968 whole entry): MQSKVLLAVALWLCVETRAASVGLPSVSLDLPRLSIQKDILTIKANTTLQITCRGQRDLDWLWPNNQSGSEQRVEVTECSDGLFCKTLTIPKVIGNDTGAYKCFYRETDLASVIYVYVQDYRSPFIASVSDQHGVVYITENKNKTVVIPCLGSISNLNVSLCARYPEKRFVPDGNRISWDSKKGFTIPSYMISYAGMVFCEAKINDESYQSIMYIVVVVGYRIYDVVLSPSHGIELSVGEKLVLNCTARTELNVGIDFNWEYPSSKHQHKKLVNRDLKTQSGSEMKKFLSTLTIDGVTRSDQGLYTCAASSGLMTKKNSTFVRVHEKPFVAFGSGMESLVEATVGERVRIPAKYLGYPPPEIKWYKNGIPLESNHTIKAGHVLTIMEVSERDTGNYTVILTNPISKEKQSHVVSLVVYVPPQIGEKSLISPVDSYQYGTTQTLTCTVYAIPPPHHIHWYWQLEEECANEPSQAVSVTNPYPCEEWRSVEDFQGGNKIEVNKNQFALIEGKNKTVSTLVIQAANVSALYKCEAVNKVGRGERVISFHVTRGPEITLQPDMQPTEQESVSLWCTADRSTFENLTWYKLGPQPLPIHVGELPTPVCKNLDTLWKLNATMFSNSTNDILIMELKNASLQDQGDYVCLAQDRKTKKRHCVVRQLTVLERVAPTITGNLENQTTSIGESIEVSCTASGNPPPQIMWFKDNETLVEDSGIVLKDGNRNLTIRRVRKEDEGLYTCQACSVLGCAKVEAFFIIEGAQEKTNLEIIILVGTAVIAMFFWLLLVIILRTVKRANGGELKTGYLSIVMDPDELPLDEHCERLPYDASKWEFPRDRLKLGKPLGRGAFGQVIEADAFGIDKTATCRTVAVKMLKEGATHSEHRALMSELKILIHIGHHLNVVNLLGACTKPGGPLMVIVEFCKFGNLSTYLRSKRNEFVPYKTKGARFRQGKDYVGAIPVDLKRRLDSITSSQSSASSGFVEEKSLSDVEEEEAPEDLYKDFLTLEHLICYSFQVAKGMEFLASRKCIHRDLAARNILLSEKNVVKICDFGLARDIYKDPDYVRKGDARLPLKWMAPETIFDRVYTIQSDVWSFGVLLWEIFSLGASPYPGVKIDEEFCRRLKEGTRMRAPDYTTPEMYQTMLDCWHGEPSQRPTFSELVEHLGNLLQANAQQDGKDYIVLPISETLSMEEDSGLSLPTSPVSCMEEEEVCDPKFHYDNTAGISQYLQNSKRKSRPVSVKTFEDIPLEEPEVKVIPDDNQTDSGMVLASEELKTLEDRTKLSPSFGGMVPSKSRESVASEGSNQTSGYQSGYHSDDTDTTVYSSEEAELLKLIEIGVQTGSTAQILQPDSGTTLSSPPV

Aurora kinase B = Aurora kinase B (Homo sapiens, UniProt Q96GD4); assay type: functional
Aurora kinase A = Aurora kinase A (Homo sapiens, UniProt O14965); assay type: functional;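 also: value from the Navigating the Kinome kinase panel profiling, panel entry STK6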
Sequence of Aurora kinase A (O14965 whole entry): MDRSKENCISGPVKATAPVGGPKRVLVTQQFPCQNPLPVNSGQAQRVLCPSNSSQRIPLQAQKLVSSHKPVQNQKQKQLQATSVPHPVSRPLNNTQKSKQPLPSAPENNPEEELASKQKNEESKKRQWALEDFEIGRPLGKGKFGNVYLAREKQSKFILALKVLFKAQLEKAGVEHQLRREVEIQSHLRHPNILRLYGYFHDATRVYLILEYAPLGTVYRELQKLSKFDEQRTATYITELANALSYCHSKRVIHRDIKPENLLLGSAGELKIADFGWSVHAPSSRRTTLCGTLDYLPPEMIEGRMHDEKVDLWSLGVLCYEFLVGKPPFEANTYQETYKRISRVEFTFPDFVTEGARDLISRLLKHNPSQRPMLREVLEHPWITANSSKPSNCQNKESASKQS

T1 sequence (P14735 whole entry): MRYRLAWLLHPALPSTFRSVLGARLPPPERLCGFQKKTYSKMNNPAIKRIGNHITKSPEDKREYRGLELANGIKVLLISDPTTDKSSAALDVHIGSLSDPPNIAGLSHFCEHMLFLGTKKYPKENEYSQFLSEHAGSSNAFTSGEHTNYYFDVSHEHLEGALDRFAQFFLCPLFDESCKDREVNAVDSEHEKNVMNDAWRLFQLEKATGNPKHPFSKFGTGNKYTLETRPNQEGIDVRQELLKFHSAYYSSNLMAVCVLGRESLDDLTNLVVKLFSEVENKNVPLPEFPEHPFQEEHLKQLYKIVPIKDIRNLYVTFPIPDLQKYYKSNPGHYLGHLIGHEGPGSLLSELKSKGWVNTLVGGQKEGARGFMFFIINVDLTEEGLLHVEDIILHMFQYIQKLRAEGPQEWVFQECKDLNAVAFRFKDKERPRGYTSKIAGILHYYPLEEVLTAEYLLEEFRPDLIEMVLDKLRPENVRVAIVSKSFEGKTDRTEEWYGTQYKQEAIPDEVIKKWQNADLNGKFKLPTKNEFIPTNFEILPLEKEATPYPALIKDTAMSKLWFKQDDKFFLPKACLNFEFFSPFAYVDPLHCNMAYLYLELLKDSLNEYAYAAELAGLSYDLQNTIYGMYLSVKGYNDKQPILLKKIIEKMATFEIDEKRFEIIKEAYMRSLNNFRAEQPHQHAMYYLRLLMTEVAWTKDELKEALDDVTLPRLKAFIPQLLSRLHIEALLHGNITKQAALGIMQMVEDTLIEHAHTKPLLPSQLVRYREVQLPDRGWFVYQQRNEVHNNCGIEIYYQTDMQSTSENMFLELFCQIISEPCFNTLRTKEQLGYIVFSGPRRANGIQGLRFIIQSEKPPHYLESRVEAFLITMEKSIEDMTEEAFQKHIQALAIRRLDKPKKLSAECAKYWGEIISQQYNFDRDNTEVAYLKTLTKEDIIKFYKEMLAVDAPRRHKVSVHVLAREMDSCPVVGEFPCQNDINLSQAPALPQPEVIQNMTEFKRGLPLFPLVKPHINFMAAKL

COc1ccc(NC(=O)C2CCN(S(=O)(=O)c3ccc4c(c3)CC(C)N4C(C)=O)CC2)cc1OC (stereo not given)
EC50 (cells [1]): > 350 µM (not active) | EC50 (Insulin-degrading enzyme [2]): > 54.7 µM (inactive) | IC50 (HEK293 [3]): > 89.2 µM (inactive) | EC50 (cells [4]): > 350 µM (not active) | EC50 (HEK293 [5]): > 54.7 µM (inactive) | EC50 (Insulin-degrading enzyme [6]): > 54.7 µM (inactive)

O=C(O)Cn1nc(-c2ccccc2)c2ccccc21
AC50 (NIH3T3): > 260 µM (inactive)

CCC(C)(C)c1ccc2c(c1)C(=O)c1ccccc1C2=O
IC50 [7]: 2.38 µM (active) | IC50 [8]: 2.05 µM (active) | IC50 (Caspase-3): 2.88 µM (active) | IC50 [9]: 1.31 µM (active)

N#Cc1c(N2CCN(C(=O)c3ccco3)CC2)nc(-c2ccccc2)c2c1CCCC2
IC50 (Melanocortin receptor 4): > 64.6 µM (inactive) | EC50 [10]: 2.31 µM (active) | IC50 [11]: > 64.6 µM (inactive) | EC50 [12]: > 60 µM (not active)

CCSc1cc(N2CCOCC2)nc(-c2ccccc2)n1
EC50 [13]: 0.016 µM (active)

Cc1ccc(F)c(NC(=O)Nc2ccc(-c3coc4c(-c5cccnc5)cnc(N)c34)cc2)c1
Ki [14]: 0.000251 µM (active) | Ki [15]: > 100 µM (inactive)

O=C1NC(=S)N(c2ccccc2)C1=O
Ki [16]: 79.4 µM (active) | Ki [17]: 79.4 µM (active)

COC(=O)C(Nc1nc(SCC(=O)NC2CCCCC2)nc2ccccc12)c1ccccc1 (stereo not given)
CC50 [18]: 129 µM (active) | CC50 [19]: 41.1 µM (active) | CC50 [20]: > 100 µM (active) | CC50 [21]: 70.9 µM (active) | CC50 [22]: 66 µM (active) | CC50 [23]: 73.2 µM (active) | CC50 [24]: > 50 µM (active)

C[C@@H]1CN([C@@H](C)CO)C(=O)c2cc(NC(=O)Cc3cn(C)c4ccccc34)ccc2O[C@H]1CN(C)S(=O)(=O)c1ccc(F)cc1
AC50 [25]: 2.08 µM (active)

CCOc1ccc(Oc2c(Br)nn(Cc3cccc4ccccc34)c(=O)c2Cl)cc1
IC50 [26]: 18.3 µM (inactive) | IC50 [27]: > 20 µM (inactive)

O=C(Nc1cccc2[nH]ncc12)NC1CCc2c1cccc2N1CCCC1 (stereo not given)
Ki [28]: 0.794 µM (active) | Ki [29]: 2.51 µM (active)

COc1ccc(-c2cc(=O)c3c(O)c(OC)c(OC)cc3o2)cc1O [EUPATORIN]
Ki [30]: 0.794 µM (active) | Ki (Aurora kinase B): 0.0398 µM (active) | Ki (Aurora kinase A): 1 µM (active)
